Like-named read-outs stand apart in the source and are kept apart here.
How the values were obtained:
[1] = tested on: Salmonella typhimurium TA98 and TA100; experiment: Reverse mutation test (Ames test), pre-incubation method; format: cell-based; conditions: strains TA98 and TA100; for Ames test S9 (−): absence of metabolic activation system (S9mix (−)); for Ames test S9 (+): presence of metabolic activation system (rat liver S9mix (+))
Procedure: The presence or absence of genotoxicity in the compounds of the present invention was evaluated by a reverse mutation test (Ames test) using bacteria. The test was performed by a pre-incubation method using two bacterial strains of Salmonella typhimurium TA98 and TA100, in the absence of a metabolic activation system (S9mix (−)) and in the presence of a metabolic activation system (S9mix (+)). The compounds were dissolved in dimethyl sulfoxide (DMSO), and thus test liquids were prepared. Regarding the negative control, the solvent DMSO was used. Regarding the positive control, 2-(2-furyl)-3-(5-nitro-2-furyl)acrylamide (AF-2) was used for S9mix (−), and 2-aminoanthracene (2-AA) was used for S9mix (+).
0.1 mL of a test liquid was introduced into a sterilized test tube, and then 0.5 mL of a 0.1 mol/L sodium phosphate buffer solution (pH 7.4) was added to the test tube in the case of S9mix (−), or 0.5 mL of rat liver S9mix was added to the test tube in the case of S9mix (+). Furthermore, 0.1 mL of a precultured test strain suspension was added to the test tube, and then the test strain was subjected to shaking culture for 20 minutes at 37° C. (preincubation). […] Subsequently, the content of the test tube was superposed on a minimum glucose agar medium plate and was spread evenly. The plate was cultured for 48 hours at 37° C. in a thermostat. After completion of culture, the number of reverse mutation colonies grown on the plate was measured using a colony counter. Regarding the determination, a case in which the number of reverse mutation colonies increased to twice or more of the number of colonies of the negative control, and concentration-dependency was recognized, was regarded as positive. […]

[2] = target: human T-type calcium channels (human Cav3.2) (Homo sapiens (Human), UniProt O95180); experiment: Antagonistic activity against T-type calcium channels (Cav3.2), Fura2 intracellular calcium assay in HEK293 cells; format: cell-based
human T-type calcium channels (human Cav3.2), sequence (O95180 whole entry): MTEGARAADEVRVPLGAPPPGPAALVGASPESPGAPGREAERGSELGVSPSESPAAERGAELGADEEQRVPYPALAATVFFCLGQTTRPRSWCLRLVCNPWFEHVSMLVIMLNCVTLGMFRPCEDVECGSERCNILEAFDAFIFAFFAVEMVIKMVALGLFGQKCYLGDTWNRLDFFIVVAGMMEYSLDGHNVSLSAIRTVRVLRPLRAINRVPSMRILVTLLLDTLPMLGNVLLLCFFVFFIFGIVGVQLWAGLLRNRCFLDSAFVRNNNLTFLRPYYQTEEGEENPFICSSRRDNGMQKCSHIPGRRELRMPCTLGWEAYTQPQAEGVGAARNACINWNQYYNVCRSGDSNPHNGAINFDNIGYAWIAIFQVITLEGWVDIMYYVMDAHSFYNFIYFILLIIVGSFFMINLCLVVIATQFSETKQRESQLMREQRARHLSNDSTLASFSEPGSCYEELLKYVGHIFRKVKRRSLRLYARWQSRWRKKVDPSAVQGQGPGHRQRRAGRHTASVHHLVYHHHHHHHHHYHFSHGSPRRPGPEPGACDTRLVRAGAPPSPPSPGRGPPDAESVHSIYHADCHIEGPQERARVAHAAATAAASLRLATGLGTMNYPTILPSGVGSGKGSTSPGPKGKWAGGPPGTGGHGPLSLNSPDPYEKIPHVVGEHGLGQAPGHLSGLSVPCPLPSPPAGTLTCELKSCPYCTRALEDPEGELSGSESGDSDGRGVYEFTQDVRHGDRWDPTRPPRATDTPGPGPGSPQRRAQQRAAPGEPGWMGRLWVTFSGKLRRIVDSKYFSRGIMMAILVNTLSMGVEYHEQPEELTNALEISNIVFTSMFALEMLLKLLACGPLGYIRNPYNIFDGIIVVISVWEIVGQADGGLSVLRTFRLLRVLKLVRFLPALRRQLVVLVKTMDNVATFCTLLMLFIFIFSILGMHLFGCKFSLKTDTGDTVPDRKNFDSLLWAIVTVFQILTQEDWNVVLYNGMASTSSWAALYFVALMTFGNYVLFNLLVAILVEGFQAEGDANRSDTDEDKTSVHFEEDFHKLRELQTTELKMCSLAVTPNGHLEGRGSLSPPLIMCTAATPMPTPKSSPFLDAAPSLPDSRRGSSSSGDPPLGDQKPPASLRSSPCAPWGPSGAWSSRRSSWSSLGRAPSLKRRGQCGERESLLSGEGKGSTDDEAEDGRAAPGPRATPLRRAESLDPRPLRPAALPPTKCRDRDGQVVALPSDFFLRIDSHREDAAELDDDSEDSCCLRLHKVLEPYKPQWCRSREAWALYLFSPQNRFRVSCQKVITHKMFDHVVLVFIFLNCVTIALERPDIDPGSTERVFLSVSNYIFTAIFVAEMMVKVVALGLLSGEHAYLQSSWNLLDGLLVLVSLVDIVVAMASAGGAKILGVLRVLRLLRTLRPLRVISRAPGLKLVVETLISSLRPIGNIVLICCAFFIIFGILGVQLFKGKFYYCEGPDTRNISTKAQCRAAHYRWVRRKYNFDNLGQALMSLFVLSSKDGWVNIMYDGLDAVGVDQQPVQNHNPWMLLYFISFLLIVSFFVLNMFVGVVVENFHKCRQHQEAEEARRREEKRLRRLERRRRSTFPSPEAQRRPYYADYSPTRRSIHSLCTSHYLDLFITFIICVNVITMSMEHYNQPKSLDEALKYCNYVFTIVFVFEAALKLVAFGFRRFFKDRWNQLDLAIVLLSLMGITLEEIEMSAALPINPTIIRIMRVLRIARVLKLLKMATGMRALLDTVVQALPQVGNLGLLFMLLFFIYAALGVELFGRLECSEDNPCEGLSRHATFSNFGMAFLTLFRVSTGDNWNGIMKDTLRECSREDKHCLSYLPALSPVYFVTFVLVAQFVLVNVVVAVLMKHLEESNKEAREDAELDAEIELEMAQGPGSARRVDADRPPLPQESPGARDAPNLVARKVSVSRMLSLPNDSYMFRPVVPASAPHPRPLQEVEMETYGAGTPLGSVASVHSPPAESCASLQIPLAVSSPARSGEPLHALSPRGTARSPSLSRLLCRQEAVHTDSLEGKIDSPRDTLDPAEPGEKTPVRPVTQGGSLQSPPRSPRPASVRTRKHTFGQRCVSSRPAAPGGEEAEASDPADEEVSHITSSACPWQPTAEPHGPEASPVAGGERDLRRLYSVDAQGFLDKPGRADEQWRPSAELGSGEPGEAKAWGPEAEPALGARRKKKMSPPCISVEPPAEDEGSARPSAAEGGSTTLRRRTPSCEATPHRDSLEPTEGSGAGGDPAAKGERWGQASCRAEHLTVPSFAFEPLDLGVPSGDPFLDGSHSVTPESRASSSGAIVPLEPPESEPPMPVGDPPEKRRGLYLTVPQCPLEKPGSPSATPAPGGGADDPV
Procedure: For representative compounds of the present invention, the antagonistic activity against T-type calcium channels (Cav3.2) was examined by the Test Examples described below. For the respective tests, human embryo kidney cells (HEK293 cells) in which human T-type calcium channels (human Cav3.2) were stably expressed were used.
The HEK293 cells having human Cav3.2 stably expressed therein were cultured at 37° C. in Alpha-MEM, to which 10% (v/v) fetal bovine serum (FBS), penicillin (100 U/mL), streptomycin (100 μg/mL), and G418 ([…]) had been added. The cells were suspended in the culture liquid and were inoculated onto a 96-well plate. Subsequently, the cells were cultured for 48 hours. The culture liquid was removed, and the liquid was changed to S-MEM, to which 5% (v/v) FBS, calcium chloride (0.5 mmol/L), L-glutamine (2 mmol/L), L-alanine (8.9 ng/mL), L-asparagine (13.2 ng/mL), L-aspartic acid (1.33 ng/mL), L-glutamic acid (14.7 ng/mL), glycine (7.5 ng/mL), L-proline (11.5 ng/mL, L-serine (10.5 ng/mL), penicillin (100 U/mL), and streptomycin (100 μg/mL) had been added. The cells were cultured for another 24 hours. The culture liquid was removed again, and the cells were washed with an assay buffer (140 mmol/L sodium chloride, 5 mmol/L potassium chloride, 0.5 mmol/L magnesium chloride, 0.5 mmol/L calcium chloride, 10 mmol/L glucose, 0.4 mmol/L magnesium sulfate, 10 mmol/L HEPES, and […] sulfinpyrazone, pH 7.4) that had been kept warm at 37° C. Subsequently, an assay buffer prepared by dissolving Fura2-AM, which is a fluorescent Ca^2+ indicator, to a concentration of 5 μM, was added to the cells, and the system was incubated for 30 minutes at 37° C. The assay buffer having Fura2 dissolved therein was removed, and the cells were washed with the assay buffer. Subsequently, an assay buffer prepared by adding a test compound was added to the cells, and the system was incubated for 15 minutes. The plate was mounted on a fluorescence analyzer (FLEX STATION II, Molecular Devices, LLC), and the baseline was measured for 20 seconds. Subsequently, any change in the intracellular calcium concentration that was induced when an assay buffer prepared by adding 100 mmol/L calcium chloride was added to the cells, was measured (excited at 340 nm or 380 nm, and detected at 510 nm). The fluorescence intensity ratios obtainable at the respective wavelengths were calculated.
Meanwhile, the test compound solution was prepared by dissolving each test compound in DMSO to a concentration of 10 mmol/L, and then adjusting the concentration with the assay buffer so as to obtain the set concentration. For the control solution, DMSO was used instead of a test compound.
The inhibitory activity level (%) of a test compound was calculated by subtracting the average value of the fluorescence intensity ratio for a period of 0 to 20 seconds after initiation of measurement, from the average value of the fluorescence intensity ratio for a period of 45 to 50 seconds after initiation of measurement, taking the value obtained using the control solution as the maximum activity of Cav3.2, and comparing this value with the activity in the presence of the test compound.
Calculation of IC50 Value:
The inhibitory activity of each test compound was measured at concentrations of […], and the IC50 value was calculated using the curve fitting formula (Model 08: sigmoidal inhibition curve) of ASSAY EXPLORER (Symyx Technologies, Inc.).
Average of RFU value obtained for 25 to 30 seconds after the addition of a […] assay buffer after treatment with the control solution (for 45 to 50 seconds after the initiation of measurement). The RFU in the formula represents the Relative Fluorescence Unit.

[3] = HEK293 cells stably expressing human Cav3.2, Fura2 fluorescence ratio after calcium chloride addition, read-out: IC50

SMILES	Ames test S9 (−) [1]	Ames test S9 (+) [1]	IC50 [2]	IC50 [2, 3]
Cc1cccc2[nH]c(CC3CCN(CC(=O)NC(C)(C)C)CC3)nc12 [Control Compound 1, N-tert-Butyl-2-[4-(4-methyl-1H-benzimidazol-2-yl)methylpiperidin-1-yl]acetamide, reference compound]	Negative	Positive	–	–
COc1cccc2[nH]c(CC3CCN(CC(=O)NC(C)(C)C)CC3)nc12 [Control Compound 2, N-tert-Butyl-2-[4-(4-methoxy-1H-benzimidazol-2-yl)methylpiperidin-1-yl]acetamide, reference compound]	Negative	Positive	–	–
CC(C)(C)NC(=O)CN1CCC(Cc2nc3ccc4c(c3[nH]2)OCCO4)CC1.Cl.Cl [Control Compound 3, N-tert-Butyl-2-[4-(5,6-dihydro-1H-[1,4]dioxino[2,3-e]benzimidazol-2-yl)methylpiperidin-1-yl]acetamide dihydrochloride, reference compound]	Negative	Positive	–	–
CC(C)(C)NC(=O)CN1[C@@H]2CC[C@H]1C[C@H](CNC(=O)c1cc(F)cc(Cl)c1)C2 [Example 54]	Negative	Negative	20 nM	–
COc1ccc2[nH]c(C[C@@H]3C[C@H]4CC[C@@H](C3)N4CC(=O)NC(C)(C)C)nc2c1OC [Example 122]	–	–	–	138 nM
CC(C)(C)NC(=O)CN1[C@@H]2CC[C@H]1C[C@H](Cc1nc3c4c(ccc3[nH]1)OCCO4)C2 [Example 123, N-tert-Butyl-2-[(exo)-3-(5,6-dihydro-1H-[1,4]dioxino[2,3-e]benzimidazol-2-yl)methyl-8-azabicyclo[3.2.1]octan-8-yl]acetamide]	Negative	Negative	–	–
COc1cccc2[nH]c(C[C@@H]3C[C@H]4CC[C@@H](C3)N4CC(=O)NC(C)(C)C)nc12 [Example 124]	–	–	–	96 nM
CC(C)(C)CNC(=O)C[C@H]1C[C@H]2CC[C@@H](C1)N2CC(=O)NC(C)(C)C [Example 127, 2-[(endo)-8-(tert-Butylcarbamoyl)methyl-8-azabicyclo[3.2.1]octan-3-yl]-N-(2,2-dimethylpropyl) acetamide]	–	–	–	73 nM
CC(C)(C)NC(=O)CN1[C@@H]2CC[C@H]1C[C@@H](CC(=O)NC13CC4CC(CC(C4)C1)C3)C2 [Example 129, N-(Adamantan-1-yl)-2-[(endo)-8-(tert-butylcarbamoyl)methyl-8-azabicyclo[3.2.1]octan-3-yl]acetamide]	–	–	–	66 nM
CC(C)(C)NC(=O)CN1[C@@H]2CC[C@H]1C[C@@H](CC(=O)NC13CC4CC(CC1C4)C3)C2 [Example 131]	–	–	–	49 nM
CC(C)(C)NC(=O)CN1[C@@H]2CC[C@H]1C[C@@H](CNC(=O)C13CC4CC(CC(C4)C1)C3)C2 [Example 144, N-[(endo)-8-(tert-Butylcarbamoyl)methyl-8-azabicyclo[3.2.1]octan-3-yl]methyladamantane-1-carboxamide]	–	–	–	44 nM
COc1cccc2[nH]c(C[C@H]3C[C@H]4CC[C@@H](C3)N4CC(=O)NC(C)(C)C)nc12 [Example 145, N-tert-Butyl-2-[(endo)-3-(4-methoxy-1H-benzimidazol-2-yl)methyl-8-azabicyclo[3.2.1]octan-8-yl]acetamide]	Negative	Negative	–	98 nM
Cc1cccc2[nH]c(C[C@H]3C[C@H]4CC[C@@H](C3)N4CC(=O)NC(C)(C)C)nc12 [Example 147]	–	–	–	83 nM
CC(C)(C)NC(=O)CN1[C@@H]2CC[C@H]1C[C@@H](CC(=O)NC13CC4CC(CC(C4)O1)C3)C2.Cl [Example 152, 2-[(endo)-8-(tert-Butylcarbamoyl)methyl-8-azabicyclo[3.2.1]octan-3-yl]-N-(2-oxaadamantan-1-yl)acetamide hydrochloride]	Negative	Negative	–	–
COc1cc(F)c2nc(C[C@@H]3C[C@H]4CC[C@@H](C3)N4CC(=O)NC(C)(C)C)[nH]c2c1 [Example 154]	–	–	78 nM	–
COc1ccc2[nH]c(C[C@@H]3C[C@H]4CC[C@@H](C3)N4CC(=O)NC(C)(C)C)nc2c1OC [Example 155]	Negative	Negative	–	–
COc1ccc(OC)c2[nH]c(C[C@@H]3C[C@H]4CC[C@@H](C3)N4CC(=O)NC(C)(C)C)nc12 [Example 172]	Negative	Negative	–	–
Cc1cc(C(=O)NC[C@@H]2C[C@H]3CC[C@@H](C2)N3CC(=O)NC(C)(C)C)n(C)n1 [Example 174]	Negative	Negative	–	–

— US9856250B2, “Substituted tropane derivatives” (TOA EIYO LTD., priority 2014, dated 2018)
